Results reported in patent US9464111B2, “Short peptides and a method of use as an antioxidant” (L'OREAL, priority 2014, dated 2016).
Where no end group is shown, it is not given here.

Key:
Assay type in all cases: biochemical
[1] = ORAC oxygen radical absorbance capacity (USTM 192), in tubo; set-up: ORAC: unit not given here; settings: for ORAC/peroxyl: Table II; for ORAC: Tables III-IX, unit not given
Method: (§1) In the course of the study, polypeptides were prepared by conventional synthesis methods and screened in tubo for antioxidant activity for peroxyl radicals (ROO.), superoxide radicals (O2.^−) and hydroxyl radicals (.OH).
(§2) In the screening standard testing for oxygen radical absorbance capacity (ORAC), hydroxyl radical absorbance capacity (HORAC), superoxide radical absorbance capacity (SORAC) and superoxide dismutase activity (SOD) were conducted with the test polypeptides. Testing was conducted according to USTM 190 (HORAC), USTM 191 (SORAC), USTM 192 (ORAC) and USTM 193 (SOAC) (SOD).
(§3) The peptides were tested in tubo for their antioxidant properties and tested against reference/known antioxidants. The evaluation of the antioxidant properties were conducted by determination of the ORAC (USTM 192), HORAC (USTM 190) and SOD (USTM 193) test methods.

[2] = SOD superoxide dismutase activity (USTM 193), in tubo; settings: Table II; for SOD/superoxide, Active25: cells marked (Active25)
Method: as §2, §3

[3] = HORAC hydroxyl radical absorbance capacity (USTM 190), in tubo; set-up: HORAC: unit not given here; settings: for HORAC/hydroxyl: Table II; for HORAC: Tables III-IX, unit not given
Method: as §1, §2, §3

[4] = SORAC superoxide radical absorbance capacity (USTM 191), in tubo; settings: Tables III-VIII; for SORAC: result in words; for SORAC (IC25): cells marked (IC25)
Method: Tables I to IX shown below are a compilation of polypeptides studied by the inventors to ascertain those elements of the molecular structure that contribute to or negate antioxidant activity. In the course of the study, polypeptides were prepared by conventional synthesis methods and screened in tubo for antioxidant activity for peroxyl radicals (ROO.), superoxide radicals (O2.^−) and hydroxyl radicals (.OH).
In the screening standard testing for oxygen radical absorbance capacity (ORAC), hydroxyl radical absorbance capacity (HORAC), superoxide radical absorbance capacity (SORAC) and superoxide dismutase activity (SOD) were conducted with the test polypeptides. Testing was conducted according to USTM 190 (HORAC), USTM 191 (SORAC), USTM 192 (ORAC) and USTM 193 (SOAC) (SOD). Upon review of the results as indicated in the Tables, the inventors have discovered certain elements of the polypeptide structure as recited in claim 1 that are key contributors to determination of antioxidant activity.

Molecule | ORAC [1] | HORAC [3] | SORAC [4] | further results
NCCC(=O)N[C@@H](Cc1c[nH]cn1)C(=O)O [Carnosine, β-alanyl-histidine, reference compound] |  |  |  | ORAC/peroxyl [1]: 354 μmol GAE/g; SOD/superoxide, Active50 [2]: 0 U/mg; HORAC/hydroxyl [3]: 2099 μmol GAE/g
O=C1O[C@H]([C@@H](O)CO)C(O)=C1O [Vitamin C, reference compound] |  |  |  | ORAC/peroxyl [1]: 4456 μmol GAE/g; SOD/superoxide, Active50 [2]: 752 U/mg; HORAC/hydroxyl [3]: 0 μmol GAE/g
Ac-DESLESTRRM-NH2 [AC-SNP4] | No capacity | No capacity |  | 
Ac-EELMSDIKK-NH2 [AC-SYN2] | No capacity | No capacity |  | 
Ac-EEMLERQRR-NH2 [AC-SNP3] | No capacity | No capacity |  | 
Ac-EEMQRRKKK-NH2 [AC-SNP5] | No capacity | No capacity |  | 
Ac-EEVKRK-NH2 [AC-SYN1] | No capacity | No capacity |  | 
Ac-KKKEEMQRR-NH2 [AC-SNP7] | No capacity | No capacity |  | 
Ac-RRMLQLVEE-NH2 [AC-SNP1] | No capacity | No capacity |  | 
Ac-Valérate-EEMQRRKKK-NH2 ({Ac-Valérate}-EEMQRRKKK-NH2; not fully specified; printed as Ac-Valérate-EEMQRRKKK-NH2) [AC-SNP6] | No capacity | No capacity |  | 
Ac-wRyR-NH2 [RED27] | 5342 |  | No capacity | 
CWRYR-NH2 [RED11] | 2007 | 625 | No capacity | 
HRHM [CP2.5] | 952 | 10192 |  | 
HWPY [S1] | 5955 |  |  | SORAC (IC25) [4]: 13(IC25)
HWRF [IMM1] | 2422 |  |  | SORAC (IC25) [4]: 5(IC25)
HYHY [AO1, short chain polypeptide of the invention] | 4748 | 33489 |  | ORAC/peroxyl [1]: 4748 μmol GAE/g; SORAC (IC25) [4]: 6(IC25); SOD/superoxide, Active25 [2]: 6 (Active25) U/mg; HORAC/hydroxyl [3]: 33489 μmol GAE/g
KRKYWW-NH2 [RED2] | 1837 | 1063 | No capacity | 
RRH [CP2.6] |  | 41073 |  | 
RRHM [CP2] | 1204 | 321448 |  | ORAC/peroxyl [1]: 1204 μmol GAE/g; SORAC (IC25) [4]: 6(IC25); HORAC/hydroxyl [3]: 321448 μmol GAE/g
RYHM [AO2.1] | 5390 | 131574 |  | ORAC/peroxyl [1]: 5390 μmol GAE/g; HORAC/hydroxyl [3]: 132591 μmol GAE/g

Molecule | ORAC [1] | HORAC [3] | SORAC [4] | further results
RYHW [AO2, short chain polypeptide of the invention] | 9328 | 41882 |  | ORAC/peroxyl [1]: 9328 μmol GAE/g; SORAC (IC25) [4]: 4(IC25); SOD/superoxide, Active25 [2]: 4 (Active25) U/mg; HORAC/hydroxyl [3]: 41882 μmol GAE/g
RwRyR-NH2 [RED26] | 4461 |  | No capacity | 
RyR-NH2 [RED32] | 3385 |  | No capacity | 
WKYK-NH2 [RED25] | 4168 | 2476 | No capacity | 
WRYR (not fully specified (C-terminus)) [RED23] | 4091 | 2089 | No capacity | 
WRYR-NH2 [RED6] | 4488 | 1548 | No capacity | 
WRYr-NH2 [RED19] | 4350 | 1457 | No capacity | 
WRyR-NH2 [RED21] | 4816 | 2472 |  | SORAC (IC25) [4]: 7(IC25)
WrYR-NH2 [RED20] | 4448 | 1666 | No capacity | 
WrYr-NH2 [RED18] | 4758 | 2982 | No capacity | 
YHFR [IMM2] |  | 3036 |  | SORAC (IC25) [4]: 5(IC25)
YWPW [S2] | 5917 |  | No capacity | 
YkYkYk [RED34] | 355 | 1053 |  | 
fkwR-NH2 [RED9] | 2202 | 752 | No capacity | 
kfRw-NH2 [RED7] | 2120 | 1124 | No capacity | 
wRYR-NH2 [RED24] | 4077 | 2225 | No capacity | 
wRwR-NH2 [RED31] | 4652 |  | No capacity | 
wRyR-NH2 [RED22] | 5383 | 1686 | No capacity | 
wRyRw-NH2 [RED29] | 5512 |  | No capacity | 
wRyRy-NH2 [RED28] | 5216 |  |  | SORAC (IC25) [4]: 3(IC25)
